Assay results reported in the supplement of paper PMC10331698.
± gives the standard deviation of the averaged measurements.

Key:
Experiment in all cases: level (log10 ratio to DMSO vehicle control); higher = higher biomarker level / cell amount than vehicle control
[1] = compound: C=C(C)C(=O)OCC(F)(F)C(F)(F)C(F)(F)F [2,2,3,3,4,4,4-Heptafluorobutyl methacrylate]; settings: in DMSO
Description: (§1)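 BioMAP Diversity Plus panel of 12 human primary cell co-culture systems (3C, 4H, LPS, SAg, BT, BF4T, BE3C, CASM3C, HDF3CGF, KF3CT, MyoF, Mphg). Compounds were added 1 h before stimulation and left for 24 h (MyoF 48 h; BT 72 h for soluble read-outs or 6 d for IgG). Biomarkers were read by ELISA, cytotoxicity by SRB, PBMC viability and proliferation by Alamar Blue. Each well value was divided by the mean of 8 DMSO control wells on the same plate and log10 transformed; duplicate blinded samples were tested at 4 concentrations.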

[2] = compound: Cc1ccc(S(=O)(=O)OCC(F)(F)C(F)(F)C(F)(F)C(F)(F)C(F)(F)C(F)F)cc1 [1H,1H,7H-Perfluoroheptyl 4-methylbenzenesulfonate]; settings: in DMSO
Description: as §1

[3] = compound: FC(F)(F)C(F)(F)C(F)(F)C(F)(F)CCI [1H,1H,2H,2H-Perfluorohexyl iodide]; settings: in DMSO
Description: as §1

[4] = compound: O=C(Cl)C(F)(F)C(F)(F)C(F)(F)C(=O)Cl [Hexafluoroglutaryl chloride]; settings: in DMSO
Description: as §1

[5] = compound: O=S(=O)(OCC(F)(F)F)C(F)(F)C(F)(F)C(F)(F)C(F)(F)F [2,2,2-Trifluoroethyl perfluorobutanesulfonate]; settings: in DMSO
Description: as §1

[6] = compound: OCC(F)(F)C(F)(F)C(F)(F)C(F)(F)C(F)(F)C(F)(F)C(F)(F)C(F)(F)C(F)(F)C(F)(F)C(F)(F)F [11:1 Fluorotelomer alcohol]; settings: in DMSO
Description: as §1

[7] = compound: OCCCC(F)(F)C(F)(F)C(F)(F)C(F)(F)C(F)(F)C(F)(F)C(F)(F)C(F)(F)F [3-(Perfluorooctyl)propanol]; settings: 6700 nM; in DMSO
Description: as §1

| Test System | level (log10) ([1]; 6700 nM) | level (log10) ([1]; 20000 nM) | level (log10) ([1]; 60000 nM) | level (log10) ([2]; 6700 nM) | level (log10) ([2]; 20000 nM) | level (log10) ([2]; 60000 nM) | level (log10) ([3]; 6700 nM) | level (log10) ([3]; 20000 nM) | level (log10) ([3]; 60000 nM) | level (log10) ([4]; 6700 nM) | level (log10) ([4]; 20000 nM) | level (log10) ([4]; 60000 nM) | level (log10) ([5]; 6700 nM) | level (log10) ([5]; 20000 nM) | level (log10) ([5]; 60000 nM) | level (log10) ([6]; 1100 nM) | level (log10) ([6]; 3300 nM) | level (log10) ([6]; 10000 nM) | level (log10) [7] |
| --- | --- | --- | --- | --- | --- | --- | --- | --- | --- | --- | --- | --- | --- | --- | --- | --- | --- | --- | --- |
| BE3C:tPA | -0.0095 ± 0.029 | -0.016 ± 0.016 | -0.021 ± 0.027 | -0.002 ± 0.044 | -0.032 ± 0.054 | -0.013 ± 0.034 | -0.001 ± 0.0028 | 0.0175 ± 0.019 | 0.051 ± 0.014 | -0.005 ± 0.0014 | -0.009 ± 0.014 | -0.0075 ± 0.022 | 0.0045 ± 0.021 | 0.028 ± 0.016 | 0.085 ± 0.031 | -0.0125 ± 0.011 | -0.033 ± 0.011 | -0.008 ± 0.016 | 0.0365 ± 0.012 |
| HDF3CGF:CD106/VCAM-1 | -0.023 ± 0.0042 | -0.017 ± 0.03 | -0.07 ± 0.028 | -0.061 ± 0.013 | -0.046 ± 0.016 | -0.0335 ± 0.0035 | -0.043 ± 0.082 | -0.0425 ± 0.026 | -0.168 ± 0.022 | -0.013 ± 0.0085 | 0.0205 ± 0.049 | -0.041 ± 0.014 | -0.022 ± 0.0099 | -0.05 ± 0.034 | -0.114 ± 0.037 | -0.075 ± 0.011 | -0.144 ± 0.013 | -0.069 ± 0.075 | -0.244 ± 0.013 |
| KF3CT:uPA | -0.0035 ± 0.011 | -0.008 ± 0.021 | -0.003 ± 0.0042 | 0.006 ± 0.021 | -0.036 ± 0.023 | -0.0335 ± 0.022 | -0.001 ± 0.02 | 0.0045 ± 0.013 | -0.005 ± 0.0099 | 0.003 ± 0.0099 | 0.0235 ± 0.00071 | 0.015 ± 0.014 | -0.0085 ± 0.0021 | -0.043 ± 0.079 | -0.075 ± 0.0042 | -0.0115 ± 0.015 | -0.0335 ± 0.00071 | -0.023 ± 0.016 | -0.0045 ± 0.025 |
| MyoF:Collagen III | 0.0075 ± 0.0021 | 0 ± 0.0014 | 0.0085 ± 0.0078 | -0.0075 ± 0.00071 | -0.0495 ± 0.022 | -0.056 ± 0.02 | 0.0045 ± 0.0092 | -0.007 ± 0.0014 | -0.007 ± 0.021 | -0.0115 ± 0.0078 | -0.004 ± 0.035 | -0.003 ± 0.021 | -0.013 ± 0.0085 | -0.006 ± 0.016 | -0.0365 ± 0.005 | 0.011 ± 0.0085 | -0.0005 ± 0.00071 | -0.001 ± 0.0071 | -0.0205 ± 0.00071 |
| 3C:CD106/VCAM-1 | 0.0145 ± 0.029 | 0.007 ± 0.016 | 0.017 ± 0.011 | -0.0205 ± 0.0064 | -0.0085 ± 0.0064 | -0.037 ± 0.025 | 0.0045 ± 0.026 | -0.015 ± 0.0014 | -0.0145 ± 0.021 | -0.03 ± 0.021 | -0.028 ± 0.035 | -0.018 ± 0.02 | -0.0165 ± 0.012 | -0.016 ± 0.0085 | 0.0015 ± 0.0021 | 0.008 ± 0.016 | 0.007 | 0.022 ± 0.0099 | -0.021 |
| HDF3CGF:SRB | 0.007 ± 0.02 | -0.002 ± 0.0099 | 0.017 ± 0.0085 | 0.0175 ± 0.033 | -0.0095 ± 0.026 | -0.04 ± 0.055 | 0.0085 ± 0.037 | -0.011 ± 0.0014 | 0.0105 ± 0.028 | -0.004 ± 0.0085 | 0.0295 ± 0.0035 | 0.007 ± 0.014 | 0.0205 ± 0.012 | 0.0125 ± 0.029 | 0.0325 ± 0.035 | -0.0055 ± 0.011 | -0.0055 ± 0.016 | 0.0315 ± 0.036 | -0.397 ± 0.28 |
| MyoF:CD106/VCAM-1 | 0.0045 ± 0.019 | -0.006 ± 0.0057 | 0.0035 ± 0.025 | 0.004 ± 0.0014 | 0.023 ± 0.0014 | 0.0135 ± 0.0021 | 0.001 ± 0.0071 | -0.0135 ± 0.015 | -0.059 ± 0.014 | -0.003 ± 0.0028 | 0.0015 ± 0.018 | 0.0035 ± 0.012 | -0.01 ± 0.011 | 0.026 ± 0.014 | -0.0075 ± 0.0021 | -0.0055 ± 0.037 | -0.0075 ± 0.022 | -0.0025 ± 0.00071 | -0.078 ± 0.044 |
| CASM3C:CCL2/MCP-1 | 0.005 ± 0.013 | 0.0045 ± 0.0035 | 0.013 ± 0.0071 | -0.0075 ± 0.0035 | -0.02 ± 0.0057 | 0.011 ± 0.025 | 0.0045 ± 0.0021 | -0.008 ± 0.0028 | 0.0235 ± 0.067 | -0.0055 ± 0.013 | -0.005 ± 0.0014 | 0.011 ± 0.014 | -0.0155 ± 0.0035 | -0.0105 ± 0.005 | 0.0065 ± 0.0035 | -0.01 ± 0.024 | -0.0055 ± 0.012 | 0.012 ± 0.025 | -0.0175 ± 0.016 |
| BE3C:uPA | -0.005 ± 0.013 | 0.005 ± 0.011 | -0.002 ± 0.025 | 0.01 ± 0.018 | -0.0155 ± 0.019 | -0.001 ± 0.0057 | -0.001 ± 0.0071 | -0.007 ± 0.0071 | -0.001 ± 0.0014 | -0.0015 ± 0.0064 | -0.004 ± 0.0028 | -0.0035 ± 0.0064 | -0.001 ± 0.0099 | -0.013 ± 0.0014 | -0.0135 ± 0.023 | -0.0155 ± 0.013 | -0.0405 ± 0.0078 | -0.0175 ± 0.0035 | -0.005 ± 0.0085 |
| lMphg:IL-1alpha | 0.01 ± 0.0057 | 0.0245 ± 0.012 | 0.03 ± 0.034 | -0.034 ± 0.017 | -0.036 ± 0.042 | 0.033 ± 0.099 | 0.008 | 0.0045 ± 0.012 | 0.0345 ± 0.0078 | -0.0255 ± 0.052 | -0.041 ± 0.086 | -0.03 ± 0.082 | -0.012 ± 0.0028 | -0.0425 ± 0.06 | -0.073 ± 0.0014 | 0.057 ± 0.025 | 0.039 ± 0.0085 | -0.12 ± 0.076 | -0.0015 ± 0.03 |
| KF3CT:CCL2/MCP-1 | 0.026 ± 0.014 | 0.008 ± 0.0085 | -0.0155 ± 0.0035 | 0.0035 ± 0.028 | -0.077 ± 0.025 | -0.009 ± 0.048 | -0.0255 ± 0.026 | -0.015 ± 0.04 | -0.004 ± 0.047 | -0.021 ± 0.016 | -0.007 ± 0.017 | 0.0075 ± 0.016 | -0.018 ± 0.057 | -0.0485 ± 0.044 | -0.022 ± 0.014 | 0.0265 ± 0.013 | 0.0205 ± 0.00071 | 0.0305 ± 0.00071 | -0.077 ± 0.025 |
